{"source": "patent US8003375B2", "about": "“Qualitative differential screening” (ExonHit Therapeutics S.A., priority 1998, dated 2011)", "key": {"[1]": {"test_system": "HepG2 cells", "assay": "in vitro", "procedure": "(§1) The effects of toxic compounds on RNA splicing regulation defects were tested as follows. HepG2 hepatocyte cells were treated with different doses of three toxic compounds (ethanol, camptothecin, PMA (phorbol 12-myristate 13-acetate)). Two cytotoxicity tests (trypan blue, MTT) were performed at different time points: 4 h and 18 h for ethanol; 4 h and 18 h for camptothecin; 18 h and 40 h for PMA.\n(§2) Trypan blue is a dye that can be incorporated by […] cells. […] The experimental points are determined in triplicate.\n(§3) The MTT test is a colorimetric test measuring the capacity of living cells to convert soluble tetrazolium salts (MTT) into an insoluble formazan precipitate. These dark blue formazan crystals can be dissolved and their concentration determined by measuring absorbance at 550 nm. Thus, after overnight seeding of 24-well dishes with 150,000 cells, followed by treatment of the cells with the toxic compounds, 50 μl of MTT (Sigma) are added (at a concentration of 5 mg/ml in PBS). The formazan crystal formation reaction is carried out for 5 h in a CO2 incubator (37° C., 5% CO2, 95% humidity). After addition of 500 μl of solubilization solution (0.1 N HCl in isopropanol-Triton X-100 (10%)), the crystals are dissolved with stirring and their absorbance is measured at 550 to 660 nm. Determinations are done in triplicate with suitable controls (viability, cell death, blanks).\n(§4) A test of apoptosis or programmed cell death was also performed by measuring DNA fragmentation with an anti-histone antibody and ELISA. The Cell Death ELISA Plus from Roche was used."}, "[2]": {"assay": "in vitro", "conditions": "human", "procedure": "as §1, §2, §3, §4"}, "[3]": {"test_system": "HepG2 cells", "conditions": "0.1 M ethanol for 18 hours (FIG. 9)", "from_the_text": "A more complex situation was examined. […] RNAs were extracted from cells that were or were not subjected to treatment. The aforementioned DATAS variant (preparation of biotinylated ss cDNA, cross hybridizations in liquid phase, application of a magnetic field to separate the species, RNase H digestion) was effected with untreated cells in the reference condition (or condition A) and with treated cells in the test condition (or condition B) (FIG. 9). As the extracted RNAs were not radiolabeled, the RNAs generated by RNase H digestion were visualized by carrying out an exchange reaction to replace the RNA 5′ phosphate with a labeled phosphate, by means of T4 polynucleotide kinase and gamma-P^32ATP. These labeled products were then loaded on an acrylamide/urea gel and analyzed by exposure using an Instant Imager (Packard Instruments)."}, "[4]": {"test_system": "FASR isoforms", "assay": "RT-PCR of FASR isoforms in treated HepG2 cells", "type": "cell-based, human", "conditions": "4 h, RT-PCR (FIG. 19)", "procedure": "(§5) HepG2 cells were thus treated with these three concentrations of these three compounds for 4 h in the case of ethanol and camptothecin and for 18 h in the case of PMA. […] These initial strands served as templates for PCR amplification reactions (94° C. 1 min, 55° C. 1 min, 72° C. 1 min, 30 cycles) by means of the following oligonucleotide primers: [table] These primers correspond to the regions common to certain FASR isoforms and should amplify a 478 base pair fragment for wild type form FasR, 452 base pairs for isoform Δ8 and 415 for isoform ΔTM."}, "[5]": {"test_system": "bcl-X isoforms", "assay": "RT-PCR of BCL-X isoforms in treated HepG2 cells", "type": "cell-based, human", "conditions": "4 h, RT-PCR (FIG. 19)", "procedure": "as §5, with “the different described” for “certain FASR”, “isoforms of bcl-X (bcl-XI, bcl-Xs, BCL-Xβ) (Boise et al., (1993), Cell 74: 597-608; U72398 (Genbank))” for “isoforms”, “single 204” for “478”, “these three isoforms.” for “wild type form FasR, 452 base pairs for isoform Δ8 and 415 for isoform ΔTM.”"}, "[6]": {"test_system": "MACH-α (Caspase-8) isoforms", "assay": "RT-PCR of MACH-α isoforms in treated HepG2 cells", "type": "cell-based, human", "conditions": "camptothecin 1 μg/ml, 4 h, RT-PCR (FIG. 19)", "procedure": "HepG2 cells were thus treated with these three concentrations of these three compounds for 4 h in the case of ethanol and camptothecin and for 18 h in the case of PMA. Messenger RNAs were purified on Dynal-Oligo-(dT) beads starting from total RNAs purified with the Rneasy kit (Quiagen). cDNA was synthesized from these messenger RNAs using Superscript reverse transcriptase (Life Technologies) and random hexamers as primers\nThese initial strands served as templates for PCR amplification reactions (94° C. 1 min, 55° C. 1 min, 72° C. 1 min, 30 cycles) by means of the following oligonucleotide primers: […]\nThese primers correspond to the regions common to the different described isoforms of MACH-α (1, 2 and 3, respectively amplifying 595, 550 and 343 base pairs). MACH-α (Caspase-8) is a protease involved in programmed cell death (Boldin et al., (1996), Cell, 85: 803-815)."}}, "data": [{"smiles": "CCO", "note": "[ethanol]", "values": [{"measurement": "cytotoxicity and DNA degradation", "setting": "[1]", "value": "signs of cytotoxicity and DNA degradation via internucleosomal fragmentation"}, {"measurement": "IC50", "setting": "[2]", "value": "> 100", "unit": "mM"}, {"measurement": "RNA splicing signatures (A/B and B/A signals versus A/A)", "setting": "[3]", "value": "can induce a reprogramming of RNA splicing events"}, {"measurement": "fas receptor isoform pattern", "setting": "[4]; ethanol 0.1 M", "value": "induces an increase in the long wild type form of the fas receptor at the expense of the shorter isoform"}, {"measurement": "bcl-X isoform pattern", "setting": "[5]; ethanol 0.1 M", "value": "induces the disappearance of bcl-x which is replaced by a shorter isoform"}]}, {"smiles": "CC[C@@]1(O)C(=O)OCc2c1cc1n(c2=O)Cc2cc3ccccc3nc2-1", "note": "[camptothecin]", "values": [{"measurement": "IC50", "setting": "[2]; HepG2 hepatocyte cells", "value": "> 1", "unit": "µg/mL"}, {"measurement": "expression of isoform MACH-α1", "setting": "[6]", "value": "decrease"}, {"measurement": "expression of isoform MACH-α3", "setting": "[6]", "value": "increase"}, {"measurement": "fas receptor isoform pattern", "setting": "[4]; camptothecin 1 μg/ml", "value": "induces a decrease in the wild type form of the fas receptor, replaced by expression of a shorter isoform which may correspond to Fas ΔTM"}, {"measurement": "bcl-X isoform pattern", "setting": "[5]; camptothecin 1 μg/ml", "value": "induces the appearance of a new bcl-X isoform"}]}, {"smiles": "CCCCCCCCCCCCCC(=O)O[C@@H]1[C@@H](C)[C@@]2(O)[C@@H](C=C(CO)C[C@]3(O)C(=O)C(C)=C[C@@H]23)[C@@H]2C(C)(C)[C@]12OC(C)=O", "note": "[PMA, phorbol 12-myristate 13-acetate]", "values": [{"measurement": "IC50 in cytotoxicity and apoptosis tests", "setting": "[1]; HepG2 cells, trypan blue, MTT, Cell Death ELISA, 18 h and 40 h, stated concentration well below measured IC50", "value": "> 0.05", "unit": "µg/mL"}]}]}
